System: P388
Experiment: Cytotoxicity against mouse P388 cells assessed as cell viability after 92 hrs by XTT assay
Type: functional, cell-based
Conditions: P388, 92 h

Compound | IC50 [nM]
CC[C@H](C)[C@H](NC(=O)[C@@H](CC(=O)NC)NC(=O)CNC(=O)[C@H](NC(=O)[C@@H](NC(=O)[C@@H](CC(=O)NC)NC(=O)[C@@H](NC(=O)[C@@H](CC(=O)NC)NC(=O)CNC(=O)CNC(=O)[C@H](C)NC(=O)[C@H](NC(=O)[C@H](CCC(=O)NC)NC(=O)[C@@H](CC(=O)NC)NC(=O)[C@@H](NC(=O)CNC(=O)[C@H](C)NC(=O)CNC(=O)[C@@H](NC(=O)[C@@H](CC(=O)NC)NC(=O)[C@H](C)NC(=O)[C@H](NC(=O)[C@H](C)NC(=O)CNC(=O)[C@H](C)N)C(C)(C)C)C(C)(C)O)C(C)(C)C)C(C)(C)O)[C@@H](C)CC)C(C)(C)C)C(C)(C)O)C(=O)N[C@H](CC(=O)NC)C(=O)N[C@H](C(=O)N[C@H](CC(=O)NC)C(=O)N[C@@H](C)C(=O)N[C@H](CC(=O)NC)C(=O)N[C@H](C(=O)N[C@H](CO)C(=O)N[C@H](C(=O)N[C@H](CC(N)=O)C(=O)N[C@@H](Cc1cn(CCNS(=O)(=O)c2cccc3c(N(C)C)cccc23)nn1)C(=O)N[C@H](CC(N)=O)C(=O)N[C@@H](CCC(N)=O)C(=O)N[C@@H](C(=O)N[C@H](C(=O)O)[C@@H](C)O)[C@H](C)O)C(C)C)C(C)C)C(C)C | > 420
CC[C@H](C)[C@H](NC(=O)[C@@H](CC(=O)NC)NC(=O)CNC(=O)[C@H](NC(=O)[C@@H](NC(=O)[C@@H](CC(=O)NC)NC(=O)[C@@H](NC(=O)[C@@H](CC(=O)NC)NC(=O)CNC(=O)CNC(=O)[C@H](C)NC(=O)[C@H](NC(=O)[C@H](CCC(=O)NC)NC(=O)[C@@H](CC(=O)NC)NC(=O)[C@@H](N)C(C)(C)C)C(C)(C)O)[C@@H](C)CC)C(C)(C)C)C(C)(C)O)C(=O)N[C@H](CC(=O)NC)C(=O)N[C@H](C(=O)N[C@H](CC(=O)NC)C(=O)N[C@@H](C)C(=O)N[C@H](CC(=O)NC)C(=O)N[C@H](C(=O)N[C@H](CO)C(=O)N[C@H](C(=O)N[C@H](CC(N)=O)C(=O)N[C@@H](Cc1cn(CCNS(=O)(=O)c2cccc3c(N(C)C)cccc23)nn1)C(=O)N[C@H](CC(N)=O)C(=O)N[C@@H](CCC(N)=O)C(=O)N[C@@H](C(=O)N[C@H](C(=O)O)[C@@H](C)O)[C@H](C)O)C(C)C)C(C)C)C(C)C | 390
CC[C@H](C)[C@H](NC(=O)[C@@H](CC(=O)NC)NC(=O)CNC(=O)[C@H](NC(=O)[C@@H](NC(=O)[C@@H](CC(=O)NC)NC(=O)[C@@H](NC(=O)[C@@H](CC(=O)NC)NC(=O)CNC(=O)CNC(=O)[C@H](C)NC(=O)[C@H](NC(=O)[C@H](CCC(=O)NC)NC(=O)[C@@H](CC(=O)NC)NC(=O)[C@@H](NC(=O)CNC(=O)[C@H](C)NC(=O)CNC(=O)[C@@H](NC(=O)[C@@H](CC(=O)NC)NC(=O)[C@H](C)NC(=O)[C@H](NC(=O)[C@H](C)NC(=O)CN)C(C)(C)C)C(C)(C)O)C(C)(C)C)C(C)(C)O)[C@@H](C)CC)C(C)(C)C)C(C)(C)O)C(=O)N[C@H](CC(=O)NC)C(=O)N[C@H](C(=O)N[C@H](CC(=O)NC)C(=O)N[C@@H](C)C(=O)N[C@H](CC(=O)NC)C(=O)N[C@H](C(=O)N[C@H](CO)C(=O)N[C@H](C(=O)N[C@H](CC(N)=O)C(=O)N[C@@H](Cc1cn(CCNS(=O)(=O)c2cccc3c(N(C)C)cccc23)nn1)C(=O)N[C@H](CC(N)=O)C(=O)N[C@@H](CCC(N)=O)C(=O)N[C@@H](C(=O)N[C@H](C(=O)O)[C@@H](C)O)[C@H](C)O)C(C)C)C(C)C)C(C)C | > 420
CC[C@H](C)[C@H](NC(=O)[C@@H](CC(=O)NC)NC(=O)CNC(=O)[C@H](NC(=O)[C@@H](NC(=O)[C@@H](CC(=O)NC)NC(=O)[C@@H](NC(=O)[C@@H](CC(=O)NC)NC(=O)CNC(=O)CNC(=O)[C@H](C)NC(=O)[C@H](NC(=O)[C@H](CCC(=O)NC)NC(=O)[C@@H](CC(=O)NC)NC(=O)[C@@H](NC(=O)CNC(=O)[C@H](C)N)C(C)(C)C)C(C)(C)O)[C@@H](C)CC)C(C)(C)C)C(C)(C)O)C(=O)N[C@H](CC(=O)NC)C(=O)N[C@H](C(=O)N[C@H](CC(=O)NC)C(=O)N[C@@H](C)C(=O)N[C@H](CC(=O)NC)C(=O)N[C@H](C(=O)N[C@H](CO)C(=O)N[C@H](C(=O)N[C@H](CC(N)=O)C(=O)N[C@@H](Cc1cn(CCNS(=O)(=O)c2cccc3c(N(C)C)cccc23)nn1)C(=O)N[C@H](CC(N)=O)C(=O)N[C@@H](CCC(N)=O)C(=O)N[C@@H](C(=O)N[C@H](C(=O)O)[C@@H](C)O)[C@H](C)O)C(C)C)C(C)C)C(C)C | 190

Source: ChEMBL document CHEMBL2321750, “Structural permutation of potent cytotoxin, polytheonamide B: discovery of cytotoxic Peptide with altered activity” (ACS Med Chem Lett, 2013)
